Laboratory results as given in patent US10792268B2, “Methods of sustaining dietary ketosis and its effects on lipid profile” (priority 2014, dated 2020).
Marks after values point to notes of the source that are not given here.

Assays:
Type in all cases: in vivo, Sprague-Dawley rats
[1] = Blood ketone (βHB) levels after intragastric gavage of ketone supplements; conditions: rats; for duration of elevated blood ketones (starting at 30 min): 5 g/kg for all four weeks
Protocol: (§1) Adult male Sprague-Dawley rats (n=74), 275-325 grams, were obtained from Harlan, and randomly assigned to the following groups: control (water), R,S-1,3-butanediol (BD), or R,S-1,3-butanediol acetoacetate diester (KE). Rats were treated daily with 5 g/kg intragastric gavage of BD or KE for days 1-28. Animals were weighed once per week to maintain accurate dosage using the Mittler Toledo SB16001 scales. Gavage was given between 10 am-1 pm daily to eliminate variance based on regular eating patterns. Diets were not restricted for this study.
(§2) Once a week, animals were fasted, with water still available for 4 hours prior to intragastric gavage to eliminate blood glucose and ketone variance of regular eating habits. Whole blood samples (10 μl) were acquired from the saphenous vein for analysis of glucose and βHB utilizing the commercially available glucose and ketone monitoring system Precision Xtra™ (Abbott Laboratories, Abbott Park, Ill.) at time 0, 0.5, 1, 4, 8, and 12 hours after test substance administration, or until βHB returned to baseline. On Day 0 (Week 0) and Day 28 (Week 4), whole blood samples (10 μL) were acquired for analysis of total cholesterol, HDL, and triglycerides for a lipid panel utilizing the commercially available home cholesterol analyzer Cardio Chek™ (Polymer Technology Systems, Inc., Indianapolis, Ind.) at time 0.

[2] = Blood glucose levels after intragastric gavage of ketone supplements; conditions: rats; for blood glucose levels, overall over the 4 weeks: 5 g/kg gavage daily; for blood glucose levels, week 1: FIG. 4(B)
Protocol: as §1, §2

[3] = Lipid panel (total cholesterol, HDL, triglycerides) at week 0 and week 4; conditions: rats, after 4-week chronic dosage, 5 g/kg
Protocol: as §1, §2

hepatocyte cell nuclei = assay: Liver histology (H&E stain) after 28 days of ketone supplementation; conditions: for fat deposits in liver sections / hepatocyte nucleus number, maximum / hepatocyte nucleus number, minimum / number of RBCs and capillaries in liver sections compared to control / hepatocyte nucleus number, average: rats, 28 days gavage at maximum tolerable dose (5-10 g/kg); for number of RBCs and capillaries in liver sections compared to control: data not shown; for hepatocyte nucleus number, average: minimum 5 images/animal, 5 animals/group; for hepatocyte nucleus number, significance (p, unpaired t-test versus control): significant if p < 0.05
Protocol: Livers from rats administered maximum tolerable dose of ketone supplementation were assessed via histology. The livers from rats treated 4-weeks with ketone supplementation appeared normal in color, size and texture in all groups upon harvesting. The livers were sectioned for histology and stained with Hematoxylin and Eosin (H&E stain), and analyzed by a trained pathologist to assess histopathological changes, including changes in liver cytoarchitecture, presence of steatosis, steatofibrosis, cell nuclei density, capillary density, presence of red blood cells (RBCs) and signs of inflammatory processes (e.g. macrophages).
The representative images are liver sections of Sprague-Dawley that were gavaged daily with water; 1,3-butanediol (BD); Ketone Ester (KE);) for 28 days at the maximum tolerable dose (5-10 g/kg). […] It should be noted that 1,3-butanediol has alcohol-like properties and requires hepatocytes to enzymatically metabolize the di-alcohol through cytosolic alcohol dehydrogenase and the induction of cytochrome p450 enzymes for conversion to βHB. The processes are associated with an increase in liver metabolism and blood flow, possibly resulting in greater number of RBCs and capillaries. There was also a modest, but statistically significant increase in hepatocyte cell nuclei, seen in Table 2, although no indications of liver damage, inflammation, fibrosis or presence of Mallory-Denk bodies were observed.

[4] = Harvested organ weights at week 4; conditions: rats, versus control; for liver weight: week 4 harvested organs
Protocol: Animals treated from Example 1 were sacrificed by CO2 between 4-8 hours after gavage-treatment at the end of 4 weeks (28 days at the dose of 5-10 g/kg), which were determined to be peak ketone elevation. Brain, Lungs, Liver, Kidneys, Spleen and Heart were harvest and weighed using AWS-1000 1 kg portable digital scale (AWS, Charleston, S.C.). Organs were then either flash frozen in liquid nitrogen or preserved in paraformaldehyde for future analysis.

[5] = Change of body weight over 4 weeks of ketone supplementation; conditions: rats, 5 g/kg gavage daily, weekly weighing over 4 weeks
Protocol: as §1
Animal weights were obtained weekly (Mittler Toledo SB16001 scales).

[6] = Global metabolic profiling of serum and hippocampus (GC/MS and LC/MS/MS) after 28-day treatment; conditions: rats
Protocol: Rats were treated as described in Example 1, and brain and serum samples were extracted and prepared for analysis using a standard solvent extraction method (Metabolon Inc., Durham, N.C.) at 28 days after initiation of treatment. The extracted samples were split into equal parts for analysis on the GC/MS and LC/MS/MS platforms. Instrument variability was determined by calculating the median relative standard deviation (RSD) for the internal standards that were added to each sample prior to injection into the mass spectrometers.
A total of 388 and 290 compounds were identified in serum and hippocampus samples, respectively. […] The less robust changes in the hippocampal tissue may have been due to the time frame needed to dissect the hippocampal tissue from the brain prior to flash freezing (2-4 minutes). Random Forest (RF) is a supervised classification technique reporting on the consensus of a large number of decision trees. In this study, the serum and hippocampus profiles of animals subjected to different dietary treatments were classified in order to: 1) assess the capacity to distinguish between dietary treatment on the basis of global metabolic profiles and 2) identify biochemicals important to the classification. A classification accuracy of 33% is expected by random chance when comparing three groups. For this study, classification of serum and hippocampus samples was 100% and 83% accurate, respectively, in correctly categorizing samples into their proper groups. […] In serum, the biochemical key to classifying the groups included biomarkers related to ketones, energy metabolites, medium-chain fatty acids, and ketones were key factors for hippocampal group classification.

[7] = 5 g/kg gavage, FIG. 3 (text: week 6; legend: week 4)

Compound | duration of elevated blood ketones (starting at 30 min) [1] | blood glucose levels, overall over the 4 weeks [2] | blood glucose levels, week 1 ([2]; 5 g/kg gavage) | Triglyceride levels at week 4 [3] | fat deposits in liver sections (hepatocyte cell nuclei) | hepatocyte nucleus number, maximum (hepatocyte cell nuclei) | hepatocyte nucleus number, minimum (hepatocyte cell nuclei) | number of RBCs and capillaries in liver sections compared to control (hepatocyte cell nuclei) | hepatocyte nucleus number, average (hepatocyte cell nuclei) | hepatocyte nucleus number, significance (p, unpaired t-test versus control) (hepatocyte cell nuclei) | liver weight [4] | body weight increase versus control [5] | further results
C[C@H](O)CCO [BD, R,S-1,3-butanediol] | 8 h | did not appear to drastically affect glucose levels | non-significant reduction | mildly elevated | the most prevalence of fat deposition | 120 | 70 | trend for greater number of RBCs and capillaries | 93.56 | 0.585 | not a significant change in liver weight | modestly decreased body weight increases | ketone bodies, peak at 4 hours ([1]; 5 g/kg gavage, FIG. 1(A), week 0): 1.0 mM/L; ketone bodies, initial peak at 30 minutes [1, 7]: around 0.8 mM/L; ketone bodies, second peak at 8 hours [1, 7]: around 0.8 mM/L; time of ketone body peak after treatment ([1]; 5 g/kg intragastric gavage daily, overall trend): 30 min; fat deposits in liver sections (hepatocyte cell nuclei; listed as BE): evident; non-liver organ weight ([4]; week 4 harvested organs (brain, lungs, kidneys, spleen, heart)): no significant change in non-liver organ weight
CC(=O)CC(=O)OCCC(C)OC(=O)CC(C)=O (centres unmarked) [KE, R,S-1,3-butanediol acetoacetate diester] | 8 h | reductions in glucose levels began at 30 minutes after treatment through 4 hours | continued the trend | little change | evident | 141 | 83 | trend for greater number of RBCs and capillaries | 107.80^a | 0.002 | statistically significant reduction in liver weight | further reduced weight gains compared to BD treatment | blood glucose levels, week 0 ([2]; 5 g/kg gavage, FIG. 4(A)): reduction in glucose levels by 1 hour after treatment; blood glucose levels, week 2 ([2]; 5 g/kg gavage, FIG. 5(A)): enhanced reduction in glucose; blood glucose levels, week 3 ([2]; 5 g/kg gavage, FIG. 5(B)): moderate reductions at 4 hours after treatment; blood glucose levels, week 4 ([2]; 5 g/kg gavage, FIG. 6): reduced glucose levels through 4 hours after treatment; alpha-ketoglutarate, metabolite ratio relative to a standard diet (SD) alone ([6]; 5 g/kg, 28 days, blood serum): 1.98^a; citrate, metabolite ratio relative to a standard diet (SD) alone ([6]; 5 g/kg, 28 days, blood serum): 1.99^a; fumarate, metabolite ratio relative to a standard diet (SD) alone ([6]; 5 g/kg, 28 days, blood serum): 1.92^a; malate, metabolite ratio relative to a standard diet (SD) alone ([6]; 5 g/kg, 28 days, blood serum): 2.03^a; succinate, metabolite ratio relative to a standard diet (SD) alone ([6]; 5 g/kg, 28 days, blood serum): 1.25; brain ketone levels, elevation with respect to controls ([6]; 28-day treatment, hippocampus, FIG. 16): > 2 fold; serum ketone levels, elevation with respect to controls ([6]; 28-day treatment, serum, FIG. 15): > 15 fold
